Assay results taken from US4727080A, “1-substituted derivatives of 6-fluoro-7-(pyrrol-1-yl)-1,4-dihydro-4-oxoquinoline-3-carboxylic acid, their preparation and their application as drugs” (Provesan S.A., priority 1984, dated 1988).
In brackets after ≈: the same amount, converted by molar mass.

Assays:
[1] = system: Bacillus subtilis ATCC 6633; assay: "In vitro" MIC, Bacillus subtilis; assay type: cell-based; details: ATCC6633; Bacillus subtilis ATCC 6633; dextrose agar, 37° C., 20 hours; read-out: "In vitro" MIC
Protocol: (§1) Antimicrobial pharmacological activity (G. L. Daquet and Y. A. Chabbect, Techniques en bacteriologie (Techniques in bacteriology), vol. 3, Flammarion Medecine-Sciences, Paris, 1972, and W. B. Hugo and A. D. Rusell, Pharmaceutical Microbiology, Blackwell Scientific Publications, London (1977).
Bacillus subtilis ATCC 6633
(§2) A streak culture of each of the microorganisms is formed in tubes of antibiotics agar no. 1 and incubated for 20 hours at 37° C. A culture loop is then taken and a culture is formed in a tryptone-soya broth and incubated for 20 hours at 37° C. The resulting culture is diluted to 1/4 with Ringer's physiological solution to give a standardized suspension of 10^5 ufc/ml for each organism.
(§3) Starting from a solution of 1000 μg/ml in 0.1N NaOH, each product is diluted successively in dextrose agar (melted beforehand and kept at 50° C.) to give the following concentrations: 64-32-16-8-4-2-1-0.5-0.25-0.125 μg of derivative/ml of medium.
(§4) After this, each concentration of each product is divided up into Petri dishes of 10 cm diameter at a rate of 10 ml of medium per dish and using as many dishes as there are microorganisms to be tested.
(§5) Once the medium has cooled, the dishes are treated with the inoculations at a rate of 0.4 ml of inoculation per dish. They are spread out with a Drigalski loop and the supernatant is collected. The inoculated dishes are incubated at 37° C. for 20 hours.

[2] = system: Micrococcus flavus ATCC 10240; assay: "In vitro" MIC, Micrococcus flavus; assay type: cell-based; details: ATCC10240; Micrococcus flavus ATCC 10240; dextrose agar, 37° C., 20 hours; read-out: "In vitro" MIC
Protocol: as §1
Micrococcus flavus ATTC 10240
as §2, §3, §4, §5

[3] = system: Sarcina lutea ATCC 9341; assay: "In vitro" MIC, Sarcina lutea; assay type: cell-based; details: Micrococcus luteus, ATCC9341; Sarcina lutea ATCC 9341; dextrose agar, 37° C., 20 hours; read-out: "In vitro" MIC
Protocol: as §1, §2, §3, §4, §5

[4] = system: Staphylococcus aureus ATCC 5488/23; assay: "In vitro" MIC, Staphylococcus aureus ATCC 5488/23; assay type: cell-based; details: ATCC5488; Staphylococcus aureus ATCC 5488/23; dextrose agar, 37° C., 20 hours; read-out: "In vitro" MIC
Protocol: as §1
Staphylococcus aureus ATCC 5488/23
as §2, §3, §4, §5

[5] = system: Staphylococcus aureus ATCC 25178; assay: "In vitro" MIC, Staphylococcus aureus ATCC 25178; assay type: cell-based; details: ATCC25178; Staphylococcus aureus ATCC 25178; dextrose agar, 37° C., 20 hours; read-out: "In vitro" MIC
Protocol: as §1
Staphylococcus aureus ATCC 25178
as §2, §3, §4, §5

[6] = system: Streptococcus faecalis ATCC 10541; assay: "In vitro" MIC, Streptococcus faecalis; assay type: cell-based; details: Enterococcus faecalis, ATCC10541; Streptococcus faecalis ATCC 10541; dextrose agar, 37° C., 20 hours; read-out: "In vitro" MIC
Protocol: as §1
Streptococcus faecalis ATCC 10541
as §2, §3, §4, §5

[7] = system: Enterobacter aerogenes ATCC 15038; assay: "In vitro" MIC, Enterobacter aerogenes; assay type: cell-based; details: Klebsiella aerogenes, ATCC15038; Enterobacter aerogenes ATCC 15038; dextrose agar, 37° C., 20 hours; read-out: "In vitro" MIC
Protocol: as §1
Enterobacter aerogenes ATCC 15038
as §2, §3, §4, §5

[8] = system: Enterobacter cloacae CHSP-20; assay: "In vitro" MIC, Enterobacter cloacae; assay type: cell-based; details: CHSP20; Enterobacter cloacae CHSP-20; dextrose agar, 37° C., 20 hours; read-out: "In vitro" MIC
Protocol: as §1
Enterobacter cloacae CHSP-20
as §2, §3, §4, §5

[9] = system: Escherichia coli ATCC 10536; assay: "In vitro" MIC, Escherichia coli ATCC 10536; assay type: cell-based; details: ATCC10536; Escherichia coli ATCC 10536; dextrose agar, 37° C., 20 hours; read-out: "In vitro" MIC
Protocol: as §1
Escherichia coli ATCC 10536
as §2, §3, §4, §5

[10] = system: Escherichia coli R-1513; assay: "In vitro" MIC, Escherichia coli R-1513; assay type: cell-based; details: R1513; Escherichia coli R-1513; dextrose agar, 37° C., 20 hours; read-out: "In vitro" MIC
Protocol: as §1, §2, §3, §4, §5

[11] = system: Klebsiella pneumoniae ATCC 10031; assay: "In vitro" MIC, Klebsiella pneumoniae; assay type: cell-based; details: ATCC10031; Klebsiella pneumoniae ATCC 10031; dextrose agar, 37° C., 20 hours; read-out: "In vitro" MIC
Protocol: as §1
Klebsiella pneumoniae ATCC 10031
as §2, §3, §4, §5

[12] = system: Citrobacter freundii ATCC 11606; assay: "In vitro" MIC, Citrobacter freundii; assay type: cell-based; details: ATCC11606; Citrobacter freundii ATCC 11606; dextrose agar, 37° C., 20 hours; read-out: "In vitro" MIC
Protocol: as §1
Citrobacter freundii ATCC 11606
as §2, §3, §4, §5

[13] = system: Proteus mirabilis ATCC 4675; assay: "In vitro" MIC, Proteus mirabilis; assay type: cell-based; details: ATCC4675; Proteus mirabilis ATCC 4675; dextrose agar, 37° C., 20 hours; read-out: "In vitro" MIC
Protocol: as §1
Proteus mirabilis ATCC 4675
as §2, §3, §4, §5

[14] = system: Proteus morganii CHSP-16; assay: "In vitro" MIC, Proteus morganii; assay type: cell-based; details: Morganella morganii, CHSP16; Proteus morganii CHSP-16; dextrose agar, 37° C., 20 hours; read-out: "In vitro" MIC
Protocol: as §1, §2, §3, §4, §5

[15] = system: Pseudomonas aeruginosa 25115; assay: "In vitro" MIC, Pseudomonas aeruginosa 25115; assay type: cell-based; details: Pseudomonas aeruginosa 25115; dextrose agar, 37° C., 20 hours; read-out: "In vitro" MIC
Protocol: as §1
Pseudomonas aeruginosa 25115
as §2, §3, §4, §5

[16] = system: Pseudomonas aeruginosa ADSA 47; assay: "In vitro" MIC, Pseudomonas aeruginosa ADSA 47; assay type: cell-based; details: ADSA47; Pseudomonas aeruginosa ADSA 47; dextrose agar, 37° C., 20 hours; read-out: "In vitro" MIC
Protocol: as §1
Pseudomonas aeruginosa ADSA 47
as §2, §3, §4, §5

[17] = system: Salmonella typhimurium AMES 98; assay: "In vitro" MIC, Salmonella typhimurium AMES 98; assay type: cell-based; details: Salmonella enterica; Salmonella typhimurium AMES 98; dextrose agar, 37° C., 20 hours; read-out: "In vitro" MIC
Protocol: as §1
Salmonella typhimurium AMES 98
as §2, §3, §4, §5

[18] = system: Salmonella typhimurium AMES 100; assay: "In vitro" MIC, Salmonella typhimurium AMES 100; assay type: cell-based; details: Salmonella enterica; Salmonella typhimurium AMES 100; dextrose agar, 37° C., 20 hours; read-out: "In vitro" MIC
Protocol: as §1
Salmonella typhimurium AMES 100
as §2, §3, §4, §5

[19] = system: Serratia marcescens ATTC 13880; assay: "In vitro" MIC, Serratia marcescens; assay type: cell-based; details: ATTC13880; Serratia marcescens ATTC 13880; dextrose agar, 37° C., 20 hours; read-out: "In vitro" MIC
Protocol: as §1
Serratia marcescens ATTC 13880
as §2, §3, §4, §5

[20] = system: Shigella flexnerii; assay: "In vitro" MIC, Shigella flexnerii; assay type: cell-based; details: 20 h, read-out: "In vitro" MIC
Protocol: as §1, §2, §3, §4, §5

[21] = Acute toxicity to mice; details: mouse, in vivo, ip, suspension in 5% gum arabic, mortality over 7 days
Protocol: The experimental animals used to determine this toxicity were albino mice of the C.F.L.P. strain and of both sexes, weighing between 19 and 25 grams. After an 18-hour fasting period with water "ad libitum", the derivatives forming the subject of the present invention are administered intraperitoneally as a suspension in 5% gum arabic. The volume of suspension administered was 0.4 ml/20 grams (20 ml/kg) in all cases, the concentration of the suspension being changed according to the dose administered.
One hour after administration of the derivatives, the animals are given a standard Panlab rat-mouse food. The mortality was observed over a period of 7 days. Differences in mortality between the sexes were not observed with any of the products.

[22] = system: Gram-positive cocci; assay: "In vitro" antimicrobial activity compared with nalidixic acid, Gram-positive cocci; assay type: cell-based
Protocol: as §1, §2, §3, §4, §5

[23] = system: Gram-negative microorganisms; assay: "In vitro" antimicrobial activity compared with nalidixic acid, Gram-negative microorganisms; assay type: cell-based
Protocol: as §1, §2, §3, §4, §5

[24] = system: all microorganisms; assay: "In vitro" antimicrobial activity compared with nalidixic acid, all microorganisms; assay type: cell-based; details: against all microorganisms
Protocol: as §1, §2, §3, §4, §5

Structure (SMILES)	MIC [1] [µg/mL]	MIC [2] [µg/mL]	MIC [3] [µg/mL]	MIC [4] [µg/mL]	MIC [5] [µg/mL]	MIC [6] [µg/mL]	MIC [7] [µg/mL]	MIC [8] [µg/mL]	MIC [9] [µg/mL]	MIC [10] [µg/mL]	MIC [11] [µg/mL]	MIC [12] [µg/mL]	MIC [13] [µg/mL]	MIC [14] [µg/mL]	MIC [15] [µg/mL]	MIC [16] [µg/mL]	MIC [17] [µg/mL]	MIC [18] [µg/mL]	MIC [19] [µg/mL]	MIC [20] [µg/mL]	further results
CCNn1cc(C(=O)O)c(=O)c2cc(F)c(-n3cccc3)cc21 [Example 8, 6-fluoro-7-(pyrrol-1-yl)-1-ethylamino-4-oxo-1,4-dihydroquinoline-3-carboxylic acid]	≤ 0.062	2 (≈ 6.34 µM)	4 (≈ 12.7 µM)	0.25 (≈ 0.793 µM)	0.25 (≈ 0.793 µM)	4 (≈ 12.7 µM)	2 (≈ 6.34 µM)	1 (≈ 3.17 µM)	0.062 (≈ 0.197 µM)	4 (≈ 12.7 µM)	0.25 (≈ 0.793 µM)	4 (≈ 12.7 µM)	8 (≈ 25.4 µM)	4 (≈ 12.7 µM)	16 (≈ 50.7 µM)	≥ 32	0.062 (≈ 0.197 µM)	1 (≈ 3.17 µM)	2 (≈ 6.34 µM)	1 (≈ 3.17 µM)	LD50 at 168 h [21]: > 1600 mg/kg; "in vitro" activity compared with nalidixic acid [22]: greater activity towards Gram-positive cocci; activity compared with nalidixic acid [23]: activity of the same order as nalidixic acid
O=C(O)c1cn(C2CC2)c2cc(-n3cccc3)c(F)cc2c1=O [Example 9, 6-fluoro-7-(pyrrol-1-yl)-1-cyclopropyl-1,4-dihydro-4-oxoquinoline-3-carboxylic acid]	0.25 (≈ 0.801 µM)	0.5 (≈ 1.6 µM)	0.5 (≈ 1.6 µM)	< 0.06	< 0.06	0.25 (≈ 0.801 µM)	0.12 (≈ 0.384 µM)	0.12 (≈ 0.384 µM)	< 0.06	0.12 (≈ 0.384 µM)	< 0.06	0.25 (≈ 0.801 µM)	0.5 (≈ 1.6 µM)	0.5 (≈ 1.6 µM)	1 (≈ 3.2 µM)	2 (≈ 6.4 µM)	1 (≈ 3.2 µM)	< 0.06	0.5 (≈ 1.6 µM)	0.2 (≈ 0.64 µM)	LD50 at 168 h [21]: > 1600 mg/kg; activity compared with nalidixic acid [24]: greater than the activity of nalidixic acid
O=C(O)c1cn(CC2CC2)c2cc(-n3cccc3)c(F)cc2c1=O [Example 4, 6-fluoro-7-(pyrrol-1-yl)-1-cyclopropylmethyl-4-oxo-1,4-dihydroquinoline-3-carboxylic acid]	0.125 (≈ 0.383 µM)	1 (≈ 3.06 µM)	8 (≈ 24.5 µM)	2 (≈ 6.13 µM)	1 (≈ 3.06 µM)	16 (≈ 49 µM)	8 (≈ 24.5 µM)	4 (≈ 12.3 µM)	0.25 (≈ 0.766 µM)	8 (≈ 24.5 µM)	1 (≈ 3.06 µM)	16 (≈ 49 µM)	32 (≈ 98.1 µM)	8 (≈ 24.5 µM)	≥ 32	≥ 32	0.25 (≈ 0.766 µM)	2 (≈ 6.13 µM)	4 (≈ 12.3 µM)	4 (≈ 12.3 µM)	LD50 at 168 h [21]: > 1600 mg/kg; "in vitro" activity compared with nalidixic acid [22]: greater activity towards Gram-positive cocci; activity compared with nalidixic acid [23]: activity of the same order as nalidixic acid
